In patent US9512125B2, “Substituted pyrazolo[3.4-D] pyrimidines as anti-inflammatory agents” (THE REGENTS OF THE UNIVERSITY OF CALIFORNIA, priority 2004, dated 2016):

Tested on: HUVEC with or without PBMC (3C, 4H, SAG and LPS systems)
Assay: BioMAP inflammation model systems (3C, 4H, SAG, LPS), cell-based ELISA profiling
Parameters: species or system human
Conditions: 4 systems (3C, 4H, SAG, LPS); concentration of 5 micromolar; 24 h stimulation

| SMILES | Activity |
| --- | --- |
| Cc1ccc(C)c(Cc2nn(C(C)(C)C)c3ncnc(N)c23)c1 [Compound 1] | + |
| CC(C)(C)n1nc(Cc2cccc(Br)c2)c2c(N)ncnc21 [Compound 2] | + |
| Cc1cc(C)cc(Cc2nn(C(C)(C)C)c3ncnc(N)c23)c1 [Compound 3] | + |
| CC(C)(C)n1nc(Cc2ccc(Cl)c(Cl)c2)c2c(N)ncnc21 [Compound 4] | + |
| Cc1ccc(Cc2nn(C(C)(C)C)c3ncnc(N)c23)cc1C [Compound 5] | + |
| Cc1cccc(Cc2nn(C(C)(C)C)c3ncnc(N)c23)c1C [Compound 6] | active |
| CC(C)(C)n1nc(-c2ccc3ccccc3c2)c2c(N)ncnc21 [Compound 10] | active |
| CC(C)(C)c1ccc(-c2nn(C(C)(C)C)c3ncnc(N)c23)cc1 [Compound 14] | + |
| CC(C)(C)n1nc(-c2ccc3c(c2)OCO3)c2c(N)ncnc21 [Compound 15] | active |
| CC(C)(C)n1nc(-c2cccc([N+](=O)[O-])c2)c2c(N)ncnc21 [Compound 16] | + |
| CC(C)(C)n1nc(-c2ccc([N+](=O)[O-])cc2)c2c(N)ncnc21 [Compound 18] | + |
| CC(C)(C)n1nc(-c2cccc(OCc3c(Cl)cccc3Cl)c2)c2c(N)ncnc21 [Compound 20] | + |
| CC(C)(C)n1nc(-c2cccc(OCc3ccccc3)c2)c2c(N)ncnc21 [Compound 21] | + |
| CC(C)(C)n1nc(-c2cccc(Oc3ccccc3)c2)c2c(N)ncnc21 [Compound 22] | active |
| CC(C)(C)n1nc(Cc2ccc(Cl)cc2)c2c(N)ncnc21 [Compound 23] | + |
| CC(C)(C)n1nc(Cc2cccc(O)c2)c2c(N)ncnc21 [Compound 24] | + |
| CC(C)(C)n1nc(Cc2ccc(O)cc2)c2c(N)ncnc21 [Compound 25] | + |
| CC(C)(C)n1nc(Cc2ccccc2O)c2c(N)ncnc21 [Compound 26] | + |
| COc1ccc(Cc2nn(C(C)(C)C)c3ncnc(N)c23)cc1 [Compound 27] | + |
| COc1ccccc1Cc1nn(C(C)(C)C)c2ncnc(N)c12 [Compound 28] | + |
| CC(C)(C)n1nc(CCc2ccccc2)c2c(N)ncnc21 [Compound 29] | + |
| Cc1ccccc1Cc1nn(C(C)(C)C)c2ncnc(N)c12 [Compound 31] | active |
| Cc1cccc(Cc2nn(C(C)(C)C)c3ncnc(N)c23)c1 [Compound 32] | + |
| Cc1ccc(Cc2nn(C(C)(C)C)c3ncnc(N)c23)cc1 [Compound 33] | + |
| CC(c1ccccc1)c1nn(C(C)(C)C)c2ncnc(N)c12 (stereo not drawn) [Compound 34] | + |

| SMILES | Activity |
| --- | --- |
| CC(C)(C)n1nc(CC2CCCC2)c2c(N)ncnc21 [Compound 35] | + |
| CC(C)(C)n1nc(Cc2ccccc2)c2c(N)ncnc21 [Compound 36] | active |
| CC(C)(C)n1nc(-c2ccccc2Cl)c2c(N)ncnc21 [Compound 37] | + |
| CC(C)(C)n1nc(C2CCCC2)c2c(N)ncnc21 [Compound 38] | + |
| Cc1cccc(-c2nn(C(C)(C)C)c3ncnc(N)c23)c1 [Compound 39] | active |
| CC(C)(C)n1nc(-c2ccccc2OCc2ccccc2)c2c(N)ncnc21 [Compound 40] | + |
| COC(=O)Cn1nc(Cc2cccc3ccccc23)c2c(N)ncnc21 [Compound 42] | + |
| CC(C)Cc1n[nH]c2ncnc(N)c12 [Compound 44] | + |
| Nc1ncnc2[nH]nc(Cc3ccccc3)c12 [Compound 45] | + |
| Cc1n[nH]c2ncnc(N)c12 [Compound 46] | + |
| Nc1ncnc2[nH]nc(-c3ccc4ccccc4c3)c12 [Compound 47] | active |
| Nc1ncnc2c1c(-c1ccccc1)nn2-c1ccccc1 [Compound 49] | + |
| CC(C)n1cc(-c2cccc(O)c2)c2c(N)ncnc21 [Compound 50] | active |
| COCCn1nc(-c2ccccc2)c2c(N)ncnc21 [Compound 51] | + |
| COCCn1nc(-c2cccc(O)c2)c2c(N)ncnc21 [Compound 52] | active |
| CC(C)n1cc(-c2cccc(O)c2)c2c(NCc3ccccc3)ncnc21 [Compound 53] | active |
| CNc1ncnc2c1c(-c1cccc(O)c1)cn2C(C)C [Compound 55] | + |
| CNc1ncnc2c1c(-c1cccc(N)c1)nn2C(C)C [Compound 56] | + |
| Clc1ncnc2c1c(-c1ccccc1)nn2Cc1ccccc1 [Compound 57] | + |
| Cn1nc(Cc2ccccc2Br)c2c(N)ncnc21 [Compound 58] | + |
| CC(C)(C)n1nc(Cc2ccccc2Br)c2c(N)ncnc21 [Compound 59] | active |
| CC(C)(C)n1nc(Cc2c(Cl)cccc2Cl)c2c(N)ncnc21 [Compound 60] | active |
| Cn1nc(Cc2ccccc2Cl)c2c(N)ncnc21 [Compound 61] | + |
| CC(C)n1nc(Cc2ccccc2Cl)c2c(N)ncnc21 [Compound 62] | active |
| Nc1ncnc2c1c(Cc1ccccc1Cl)nn2C1CCCC1 [Compound 63] | active |

| SMILES | Activity |
| --- | --- |
| CC(C)(C)n1nc(Cc2ccccc2F)c2c(N)ncnc21 [Compound 64] | active |
| CC(C)(C)n1nc(Cc2ccccc2C(F)(F)F)c2c(N)ncnc21 [Compound 65] | active |
| Cc1sccc1Cc1n[nH]c2ncnc(N)c12 [Compound 66] | active |
| Cc1sccc1Cc1nn(C(C)(C)C)c2ncnc(N)c12 [Compound 67] | active |
| CC(C)(C)n1nc(Cc2ccc(Cl)cc2Cl)c2c(N)ncnc21 [Compound 68] | + |
| CC(C)(C)n1nc(Cc2ccc(F)cc2Cl)c2c(N)ncnc21 [Compound 69] | + |
| CCOCCn1nc(Cc2ccccc2Cl)c2c(N)ncnc21 [Compound 70] | + |
| CC(C)(C)Cn1nc(Cc2ccccc2Cl)c2c(N)ncnc21 [Compound 72] | active |
| COC(=O)CCCn1nc(Cc2ccccc2Cl)c2c(N)ncnc21 [Compound 73] | + |
| Nc1ncnc2c1c(Cc1ccccc1Cl)nn2CCCCO [Compound 74] | + |
| Nc1ncnc2c1c(Cc1ccccc1Cl)nn2C1CCC(O)CC1 (stereo not drawn) [Compound 75] | + |
| CNc1ncnc2c1c(Cc1ccccc1Cl)nn2C(C)(C)C [Compound 76] | active |
| CC(C)(C)n1nc(C2(c3ccccc3Cl)CC2)c2c(N)ncnc21 [Compound 77] | active |
| CC(C)(C)n1nc(Cc2ccc(F)cc2F)c2c(N)ncnc21 [Compound 78] | active |
| CC(C)(C)n1nc(Cc2cc(F)ccc2F)c2c(N)ncnc21 [Compound 79] | active |
| CN(C)c1ncnc2c1c(Cc1ccccc1Cl)nn2C(C)(C)C [Compound 80] | active |
| CC(C)(C)n1nc(Cc2c(F)cccc2F)c2c(N)ncnc21 [Compound 81] | active |
| CC(C)(C)n1nc(Cc2cccc(F)c2F)c2c(N)ncnc21 [Compound 82] | active |
| CCCn1nc(Cc2ccccc2Cl)c2c(N)ncnc21 [Compound 83] | active |
| CCCCCn1nc(Cc2ccccc2Cl)c2c(N)ncnc21 [Compound 84] | active |
| CCC(C)CCn1nc(Cc2ccccc2Cl)c2c(N)ncnc21 (stereo not drawn) [Compound 85] | active |
| CC(C)(C)n1nc(-c2cc3ccccc3s2)c2c(N)ncnc21 [Compound 86] | active |
| CCCCCCn1nc(Cc2ccccc2Cl)c2c(N)ncnc21 [Compound 87] | active |
| CC(C)(C)n1nc(-c2ccc(-c3ccccc3)cc2)c2c(N)ncnc21 [Compound 88] | active |
| CCCCn1nc(Cc2ccccc2Cl)c2c(N)ncnc21 [Compound 89] | active |

Tested on: T cell activation
Assay: T cell activation inhibition in cell-based (BioMAP) assay
Parameters: species or system human
Conditions: not given
Experimental: T-cell activation inhibitors may be especially useful in treating the inflammation underlying arthritis, psoriasis, vasculitis, multiple sclerosis, IBD, asthma, atherosclerosis, or other inflammatory disease.
(§1) Human umbilical vein endothelial cells (HUVEC) were cultured as described in Kunkel et al., 2004, FASEB J 18:1279-1281. Peripheral blood mononuclear cells (PBMC) were prepared from buffy coats (Stanford Blood Bank, Stanford, Calif.) by centrifugation over Hisopaque-1077 (Sigma). Four assay systems, 3C, 4H, SAG, and LPS, were used. For the 3C system, HUVEC were cultured for 24 h in microtiter plates (Falcon; BD Biosciences), in the presence of cytokines IL-1β (1 ng/ml), TNF-α (5 ng/ml), and IFN-γ (20 ng/ml). For the 4H system, HUVEC were cultured in the presence of IL-4 (5 ng/ml) and histamine (10 μM). For the SAG system, HUVEC were cultured with PBMC (7.5×10^4) and SAG (20 ng/ml). For the LPS system, HUVEC were cultured with PBMC (7.5×10^4) and LPS (2 ng/ml). Compounds were added 1 h before stimulation and were present during the entire 24-h stimulation period. Cell-based enzyme-linked immunosorbent assay (ELISAs) were carried out as described. (See Kunkel et al., 2004, FASEB J 18:1279-1281.)

| SMILES | T cell activation inhibitor classification |
| --- | --- |
| Cc1ccc(-c2nn(C(C)(C)C)c3ncnc(N)c23)cc1 [Compound 13, PP1, reference compound] | T cell activation inhibitor |

Same assay, conditions: strongly inhibit T cell activation: at least one listed gene product inhibited by at least 50% in a cell-based assay

| SMILES | T cell activation inhibitor classification |
| --- | --- |
| CC(C)(C)n1nc(-c2ccc3ccccc3c2)c2c(N)ncnc21 [Compound 10] | T cell activation inhibitor |
| CC(C)(C)n1nc(-c2ccc3c(c2)OCO3)c2c(N)ncnc21 [Compound 15] | T cell activation inhibitor |

Tested on: monocyte activation
Assay: Monocyte activation inhibition in cell-based (BioMAP) assay
Parameters: species or system human
Conditions: weakly inhibit T cell activation, strongly inhibit monocyte activation, MCP-1 and IL-8 (at least 50%) in a cell-based assay
Experimental: as §1

| SMILES | monocyte activation inhibitor classification |
| --- | --- |
| Cc1ccccc1Cc1nn(C(C)(C)C)c2ncnc(N)c12 [Compound 31] | monocyte activation inhibitor |
| CC(C)(C)n1nc(Cc2ccccc2)c2c(N)ncnc21 [Compound 36] | monocyte activation inhibitor |
| CC(C)(C)n1nc(Cc2ccccc2Br)c2c(N)ncnc21 [Compound 59] | monocyte activation inhibitor |
| CC(C)n1nc(Cc2ccccc2Cl)c2c(N)ncnc21 [Compound 62] | monocyte activation inhibitor |
| Nc1ncnc2c1c(Cc1ccccc1Cl)nn2C1CCCC1 [Compound 63] | monocyte activation inhibitor |
| CC(C)(C)n1nc(Cc2ccccc2F)c2c(N)ncnc21 [Compound 64] | monocyte activation inhibitor |
| CC(C)(C)n1nc(Cc2ccccc2C(F)(F)F)c2c(N)ncnc21 [Compound 65] | monocyte activation inhibitor |
| CC(C)(C)Cn1nc(Cc2ccccc2Cl)c2c(N)ncnc21 [Compound 72] | monocyte activation inhibitor |
| CNc1ncnc2c1c(Cc1ccccc1Cl)nn2C(C)(C)C [Compound 76] | monocyte activation inhibitor |
